Experimental data published in ChEMBL document CHEMBL4419173, “Small-molecule inhibitors targeting g-protein-coupled rho guanine nucleotide exchange factors” (2014).
Calls of active or inactive are those of the source. The calls are words filed in the database; no cut-off is given here.

Tests used:
MCF7 [1] = assay: Inhibition of RhoGEF in human MCF7 cells derived mammospheres assessed as inhibition of RhoA-mediated phospho-MLC formation at 2.5 uM in presence of 2.5 uM Rhosin/G04 incubated for 24 hrs by densitometry; format: cell-based
MCF7 [2] = assay: Inhibition of RhoGEF in human MCF7 cells derived mammospheres assessed as inhibition of 10% calf serum-induced RhoA-GTP formation at 2.5 uM in presence of 2.5 uM Rhosin/G04 incubated for 24 hrs by densitometry relative to control; format: cell-based
MCF7 [3] = assay: Inhibition of RhoGEF in human MCF7 cells derived mammospheres assessed as inhibition of 10% calf serum-induced RhoA-GTP formation by measuring relative RhoA-GTP level at 5 uM in presence of 5 uM Rhosin/G04 incubated for 24 hrs by densitometry (reference value: 1); format: cell-based
MCF7 [4] = assay: Inhibition of RhoGEF in human MCF7 cells derived mammospheres assessed as inhibition of 10% calf serum-induced RhoA-GTP formation by measuring relative RhoA-GTP level at 30 uM incubated for 24 hrs by densitometry (reference value: 1); format: cell-based
MCF7 [5] = assay: Inhibition of cell migration of human MCF7 cells at 2.5 to 30 uM in presence of 2.5 to 30 uM Rhosin/G04; format: functional, cell-based
MCF7 [6] = assay: Growth inhibition of human MCF7 cells at 5 to 50 uM; format: functional, cell-based
Mus musculus [7] = organism: Mus musculus; assay: Inhibition of RhoGEF in mouse NIH/3T3 cells assessed as inhibition of 10% calf serum-induced Cdc42-GTP formation by measuring relative Cdc42-GTP level at 50 uM incubated for 24 hrs by densitometry (reference value: 1); format: cell-based
Mus musculus [8] = organism: Mus musculus; assay: Inhibition of RhoGEF in mouse NIH/3T3 cells assessed as inhibition of 10% calf serum-induced RhoA-GTP formation by measuring relative RhoA-GTP level at 50 uM in presence of 50 uM Rhosin/G04 incubated for 24 hrs by densitometry (reference value: 1); format: cell-based
Mus musculus [9] = organism: Mus musculus; assay: Inhibition of RhoGEF in mouse NIH/3T3 cells assessed as inhibition of 10% calf serum-induced RhoA-GTP formation by measuring relative RhoA-GTP level at 10 uM incubated for 24 hrs by densitometry (reference value: 1); format: cell-based
[10] = target: T1, RhoGEF 1/Transforming protein RhoA (Homo sapiens) (UniProt P61586+Q92888); assay: (§1) Binding affinity to human LARG (765 to 1138 residues) DH-PH module expressed in mouse NIH/3T3 cells assessed as reduction in LARG binding to human full length RhoA (1 to 193 residues) by measuring relative LARG binding level at 15 uM in presence of 15 uM Rhosin/G04 pull-down assay (reference value: 1 No unit); format: cell-based
[11] = target: T1, RhoGEF 1/Transforming protein RhoA (Homo sapiens); assay: as §1, with “5” for “15”; format: cell-based
Mus musculus [12] = organism: Mus musculus; assay: Inhibition of RhoGEF in mouse NIH/3T3 cells assessed as inhibition of 10% calf serum-induced RhoA-GTP formation by measuring reduction in RhoA-GTP level at 30 uM incubated for 24 hrs by densitometry relative to control; format: cell-based
Mus musculus [13] = organism: Mus musculus; assay: Inhibition of RhoGEF in mouse NIH/3T3 cells assessed as inhibition of 10% calf serum-induced RhoA-GTP formation by measuring RhoA-GTP level at 30 uM incubated for 24 hrs by densitometry relative to control (reference value: 2.15); format: cell-based
NIH3T3 = assay: Toxicity in mouse NIH/3T3 cells assessed as induction of apoptosis at 10 to 50 uM incubated for 24 hrs by Annexin-V/7-AAD staining based FACS analysis; format: cell-based; details: nih3t3, 24 h
Mus musculus [14] = organism: Mus musculus; assay: Inhibition of RhoGEF-mediated RhoA signaling in mouse NIH/3T3 cells assessed as inhibition of serum -induced phospho-MLC formation at 10 to 30 uM incubated for 24 hrs by densitometry; format: cell-based
[15] = test system: Transforming protein RhoA (Homo sapiens), P61586 [Q63L]; assay: Inhibition of constitutively active RhoA Q63L mutant (unknown origin) expressed in mouse NIH/3T3 cells assessed as reduction in 10% calf serum-induced focal adhesion complex formation at 50 uM by anti-vinculin antibody staining based assay; format: cell-based
Mus musculus [16] = organism: Mus musculus; assay: Inhibition of RhoGEF-mediated RhoA signaling in mouse NIH/3T3 cells assessed as inhibition of SDF1a-induced phospho-MLC formation at 10 to 30 uM incubated for 24 hrs by densitometry; format: cell-based
Mus musculus [17] = organism: Mus musculus; assay: Inhibition of RhoGEF in mouse NIH/3T3 cells assessed as inhibition of 10% calf serum-induced RhoA-GTP formation incubated for 24 hrs by densitometry; format: cell-based
[18] = target: Rho guanine nucleotide exchange factor 12 (Homo sapiens, UniProt Q9NZN5); assay: Binding affinity to recombinant human LARG (765 to 1138 residues) containing DH-PH catalytic module by microscale thermophoresis analysis
[19] = target: Proto-oncogene DBL/Transforming protein RhoA (Homo sapiens) (UniProt P61586+P10911); assay: Inhibition of GST-tagged human DBL RhoGEF DH-PH module expressed in mouse NIH/3T3 cells assessed as reduction in human full length RhoA (1 to 193 residues) interaction with DBL RhoGEF at 10 to 50 uM incubated for 1 hr by Western blot analysis based His-RhoA pull-down assay; format: cell-based
[20] = target: A-kinase anchor protein 13/Transforming protein RhoA (Homo sapiens) (UniProt P61586+Q12802); assay: Inhibition of FLAG-tagged human LBC RhoGEF DH-PH module expressed in mouse NIH/3T3 cells assessed as reduction in human full length RhoA (1 to 193 residues) interaction with LBC RhoGEF at 10 to 50 uM incubated for 1 hr by Western blot analysis based His-RhoA pull-down assay; format: cell-based
[21] = target: CDC42/Intersectin-1 (Homo sapiens) (UniProt P60953+Q15811); assay: Inhibition of GST-tagged human intersectin-1 RhoGEF (1227 to 1571 residues) expressed in mouse NIH/3T3 cells assessed as reduction in human full length Cdc42 (1 to 191 residues) interaction with intersectin-1 RhoGEF at 50 to 200 uM incubated for 1 hr by Western blot analysis based pull-down assay; format: cell-based
Homo sapiens = organism: Homo sapiens; assay: Inhibition of GST-tagged human TrioN RhoGEF (1284 to 1711 residues) expressed in mouse NIH/3T3 cells assessed as reduction in human full length Rac1 (1 to 192 residues) interaction with TrioN RhoGEF at 50 to 200 uM incubated for 1 hr by Western blot analysis based pull-down assay; format: cell-based
[22] = target: Triple functional domain protein (Homo sapiens, UniProt O75962); assay: Binding affinity to GST-tagged human TrioN RhoGEF (1284 to 1711 residues) by microscale thermophoresis analysis
[23] = target: Intersectin-1 (Homo sapiens) (UniProt Q15811); assay: Binding affinity to GST-tagged human intersectin-1 RhoGEF at 1 to 100000 nM by microscale thermophoresis analysis
Chain of Intersectin-1 (Homo sapiens) (Q15811 whole entry): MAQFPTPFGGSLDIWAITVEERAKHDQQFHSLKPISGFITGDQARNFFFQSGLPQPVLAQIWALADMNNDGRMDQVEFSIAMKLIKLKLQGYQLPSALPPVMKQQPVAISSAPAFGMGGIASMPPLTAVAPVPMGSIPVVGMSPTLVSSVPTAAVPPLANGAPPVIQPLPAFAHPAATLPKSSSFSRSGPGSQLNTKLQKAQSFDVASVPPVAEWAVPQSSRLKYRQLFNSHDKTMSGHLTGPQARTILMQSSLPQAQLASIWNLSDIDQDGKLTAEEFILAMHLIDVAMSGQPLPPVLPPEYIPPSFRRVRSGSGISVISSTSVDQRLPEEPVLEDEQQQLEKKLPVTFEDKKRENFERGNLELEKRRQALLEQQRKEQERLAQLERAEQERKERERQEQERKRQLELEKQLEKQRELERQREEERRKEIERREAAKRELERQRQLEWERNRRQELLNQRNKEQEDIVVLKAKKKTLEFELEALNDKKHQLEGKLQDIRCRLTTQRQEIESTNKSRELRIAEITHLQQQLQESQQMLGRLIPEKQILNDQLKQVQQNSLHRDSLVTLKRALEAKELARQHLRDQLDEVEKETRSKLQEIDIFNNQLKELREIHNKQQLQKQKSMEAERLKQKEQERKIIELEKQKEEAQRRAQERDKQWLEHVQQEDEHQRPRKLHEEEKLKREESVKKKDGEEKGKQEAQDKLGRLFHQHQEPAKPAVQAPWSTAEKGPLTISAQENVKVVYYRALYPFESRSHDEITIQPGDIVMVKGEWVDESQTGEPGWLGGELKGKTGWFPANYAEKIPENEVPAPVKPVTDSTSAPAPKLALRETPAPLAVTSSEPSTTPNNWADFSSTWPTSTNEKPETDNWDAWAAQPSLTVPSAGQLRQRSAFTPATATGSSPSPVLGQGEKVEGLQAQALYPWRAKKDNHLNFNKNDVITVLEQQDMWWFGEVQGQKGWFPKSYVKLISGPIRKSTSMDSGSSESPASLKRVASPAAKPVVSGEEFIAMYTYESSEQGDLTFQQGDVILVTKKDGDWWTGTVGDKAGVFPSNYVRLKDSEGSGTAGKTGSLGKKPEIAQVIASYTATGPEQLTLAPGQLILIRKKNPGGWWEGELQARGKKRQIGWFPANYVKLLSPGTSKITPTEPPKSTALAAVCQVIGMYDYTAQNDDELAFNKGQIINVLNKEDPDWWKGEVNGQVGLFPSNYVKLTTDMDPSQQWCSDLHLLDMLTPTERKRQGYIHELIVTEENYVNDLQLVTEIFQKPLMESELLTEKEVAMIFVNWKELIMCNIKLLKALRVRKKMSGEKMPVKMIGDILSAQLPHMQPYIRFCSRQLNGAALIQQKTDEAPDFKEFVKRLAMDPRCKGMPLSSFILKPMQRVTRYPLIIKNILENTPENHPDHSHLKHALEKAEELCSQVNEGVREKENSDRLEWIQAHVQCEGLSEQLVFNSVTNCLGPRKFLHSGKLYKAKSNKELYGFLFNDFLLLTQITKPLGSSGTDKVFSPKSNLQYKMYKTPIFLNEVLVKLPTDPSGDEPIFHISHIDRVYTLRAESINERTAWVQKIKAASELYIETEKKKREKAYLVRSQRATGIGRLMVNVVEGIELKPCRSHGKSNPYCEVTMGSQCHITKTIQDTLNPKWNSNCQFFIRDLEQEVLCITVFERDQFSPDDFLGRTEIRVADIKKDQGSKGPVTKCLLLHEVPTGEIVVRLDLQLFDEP

Chain of Rho guanine nucleotide exchange factor 12 (Q9NZN5 whole entry, the tested form may be a part): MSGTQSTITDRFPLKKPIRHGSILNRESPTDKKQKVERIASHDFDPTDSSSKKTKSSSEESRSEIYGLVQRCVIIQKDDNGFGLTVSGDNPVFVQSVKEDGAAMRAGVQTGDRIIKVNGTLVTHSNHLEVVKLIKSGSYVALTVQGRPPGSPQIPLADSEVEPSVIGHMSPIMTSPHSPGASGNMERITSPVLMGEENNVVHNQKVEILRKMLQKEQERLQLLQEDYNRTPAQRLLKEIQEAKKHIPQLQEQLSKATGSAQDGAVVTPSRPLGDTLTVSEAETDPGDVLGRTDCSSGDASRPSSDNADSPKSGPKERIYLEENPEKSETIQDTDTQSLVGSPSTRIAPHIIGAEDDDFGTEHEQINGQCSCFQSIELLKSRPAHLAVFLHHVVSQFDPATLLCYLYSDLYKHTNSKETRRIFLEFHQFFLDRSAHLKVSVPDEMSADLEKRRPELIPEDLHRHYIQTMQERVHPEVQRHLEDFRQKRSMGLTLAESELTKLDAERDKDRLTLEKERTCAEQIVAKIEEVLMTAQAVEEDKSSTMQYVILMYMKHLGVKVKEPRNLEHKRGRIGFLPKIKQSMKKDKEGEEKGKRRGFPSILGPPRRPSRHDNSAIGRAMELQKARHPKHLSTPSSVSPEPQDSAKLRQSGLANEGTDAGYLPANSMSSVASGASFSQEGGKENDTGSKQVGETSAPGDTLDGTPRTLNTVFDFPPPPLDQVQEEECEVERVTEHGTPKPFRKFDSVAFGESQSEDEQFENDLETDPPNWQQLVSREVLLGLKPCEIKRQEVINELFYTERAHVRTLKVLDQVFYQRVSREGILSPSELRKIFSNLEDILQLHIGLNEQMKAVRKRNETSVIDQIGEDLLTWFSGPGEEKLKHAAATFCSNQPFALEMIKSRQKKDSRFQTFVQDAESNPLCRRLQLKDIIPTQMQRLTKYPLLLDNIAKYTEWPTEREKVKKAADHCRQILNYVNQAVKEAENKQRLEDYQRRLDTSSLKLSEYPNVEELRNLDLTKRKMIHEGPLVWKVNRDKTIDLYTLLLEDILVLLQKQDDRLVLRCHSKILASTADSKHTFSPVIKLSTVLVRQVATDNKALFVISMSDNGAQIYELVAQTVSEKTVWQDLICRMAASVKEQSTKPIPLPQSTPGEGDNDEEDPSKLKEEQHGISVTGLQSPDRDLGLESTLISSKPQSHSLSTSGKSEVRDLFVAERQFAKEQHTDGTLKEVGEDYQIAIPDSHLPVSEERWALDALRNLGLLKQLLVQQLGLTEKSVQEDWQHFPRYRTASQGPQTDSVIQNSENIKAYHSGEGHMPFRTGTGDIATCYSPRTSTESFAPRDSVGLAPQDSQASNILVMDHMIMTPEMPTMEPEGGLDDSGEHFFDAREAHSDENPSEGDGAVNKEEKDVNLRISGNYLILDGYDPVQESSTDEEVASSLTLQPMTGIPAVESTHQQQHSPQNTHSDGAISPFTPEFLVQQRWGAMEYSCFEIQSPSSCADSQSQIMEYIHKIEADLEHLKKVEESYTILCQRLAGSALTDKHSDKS
Chain of Transforming protein RhoA (Homo sapiens), P61586 [Q63L] (P61586 whole entry Q63L): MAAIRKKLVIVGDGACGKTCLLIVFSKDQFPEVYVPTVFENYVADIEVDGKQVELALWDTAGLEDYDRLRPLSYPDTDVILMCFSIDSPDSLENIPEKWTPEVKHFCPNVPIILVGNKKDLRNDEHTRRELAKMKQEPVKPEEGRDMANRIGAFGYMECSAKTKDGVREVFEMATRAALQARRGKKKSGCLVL
Chain of CDC42/Intersectin-1 (Homo sapiens) (P60953 whole entry, looked up, the tested form may be a part): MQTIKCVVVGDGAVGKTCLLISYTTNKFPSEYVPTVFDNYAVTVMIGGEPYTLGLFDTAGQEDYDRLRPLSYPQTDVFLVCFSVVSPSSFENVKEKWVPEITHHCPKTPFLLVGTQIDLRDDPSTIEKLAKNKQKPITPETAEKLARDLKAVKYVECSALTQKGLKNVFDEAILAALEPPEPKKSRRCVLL
Chain of CDC42/Intersectin-1 (Homo sapiens) (Q15811 whole entry, looked up, the tested form may be a part): as the sequence (Q15811 whole entry) above

fold change (FC) [10]: 0.03
fold change (FC) [11]: 0.28
inhibition [15]: inactive
Kd [18]: 0.065 to 0.076 µM
inhibition [19]: inactive
inhibition [20]: inactive
inhibition [21]: inactive
Kd [22]: 774 µM
Activity [23]: inactive
SMILES: Cc1cccc(COc2cccc(/C=C3\C(=O)NN(c4ccccc4)C3=O)c2)c1
inhibition (MCF7 [1]): 70%
inhibition (MCF7 [2]): 70%
fold change (FC) (MCF7 [3]): 0.11
fold change (FC) (MCF7 [4]): 0.15
inhibition (MCF7 [5]): Active
growth inhibition (GI) (MCF7 [6]): Active
fold change (FC) (Mus musculus [7]): 1.25
fold change (FC) (Mus musculus [8]): 0
fold change (FC) (Mus musculus [9]): 0.8
inhibition (Mus musculus [12]): 80%
fold change (FC) (Mus musculus [13]): 0.87
Activity (NIH3T3): Non-Toxic
inhibition (Mus musculus [14]): Active
inhibition (Mus musculus [16]): Active
inhibition (Mus musculus [17]): Dose-dependent effect
inhibition (Homo sapiens): inactive
